Numbers after ± are expanded uncertainties.
Experiment: mn = molality of the nth substance listed, in mol/kg
Details: 101 kPa, Liquid, Alternating current cell with electrodes

[Ca+2].[Cl-].[Cl-] [calcium chloride] + O
electrical conductivity [S/m]
Details | 278.15 K | 283.15 K | 298.15 K | 308.15 K | 318.15 K | 343.15 K | 363.15 K
m1 = 7.6e-05 | 0.001256 ± 5e-06 | 0.001432 ± 6e-06 | 0.001998 ± 8e-06 | 0.002384 ± 1e-05 | 0.002814 ± 1.1e-05 | 0.004073 ± 1.6e-05 | 0.00517 ± 2e-05
m1 = 0.000755 | 0.01195 ± 5e-05 | 0.01369 ± 6e-05 | 0.01945 ± 8e-05 | 0.02351 ± 9e-05 | 0.02784 ± 0.00011 | 0.03992 ± 0.00016 | 0.05001 ± 0.0002
m1 = 0.00755 | 0.1103 ± 0.0004 | 0.1263 ± 0.0005 | 0.1792 ± 0.0007 | 0.216 ± 0.0009 | 0.2547 ± 0.001 | 0.3636 ± 0.0015 | 0.4547 ± 0.0018
m1 = 0.0755 | 0.9331 ± 0.0037 | 1.062 ± 0.0042 | 1.496 ± 0.006 | 1.793 ± 0.0072 | 2.11 ± 0.0084 | 2.982 ± 0.012 | 3.694 ± 0.015
m1 = 0.3773 | 4.179 ± 0.017 | 4.73 ± 0.019 | 6.531 ± 0.026 | 7.792 ± 0.031 | 9.092 ± 0.036 | 12.66 ± 0.051 | 15.58 ± 0.062

O=[N+]([O-])[O-].O=[N+]([O-])[O-].O=[N+]([O-])[O-].[Al+3] [aluminum trinitrate] + O
electrical conductivity [S/m]
Details | 278.1 K | 283.1 K | 298.15 K | 308.15 K | 318.15 K | 343.15 K | 363.15 K
m1 = 8.8e-05 | – | – | – | – | – | 0.09049 ± 0.00036 | 0.1042 ± 0.0004
m1 = 0.000883 | 0.05671 ± 0.00023 | 0.06384 ± 0.00026 | 0.08484 ± 0.00034 | 0.09898 ± 0.0004 | 0.1135 ± 0.0005 | 0.1533 ± 0.0006 | 0.1872 ± 0.0008
m1 = 0.00871 | 0.2168 ± 0.0009 | 0.2457 ± 0.001 | 0.3424 ± 0.0014 | 0.411 ± 0.0016 | 0.4827 ± 0.0019 | 0.6932 ± 0.0028 | 0.8941 ± 0.0036
m1 = 0.0881 | 1.551 ± 0.0062 | 1.706 ± 0.0068 | 2.378 ± 0.0095 | 2.873 ± 0.011 | 3.387 ± 0.013 | 4.867 ± 0.019 | 5.923 ± 0.024
m1 = 0.158 | 2.511 ± 0.01 | 2.826 ± 0.011 | 3.913 ± 0.016 | 4.788 ± 0.019 | 5.595 ± 0.022 | 7.689 ± 0.031 | 9.698 ± 0.039

O=C([O-])[O-].[K+].[K+] [potassium carbonate] + O
electrical conductivity [S/m]
Details | 278.15 K | 283.15 K | 298.15 K | 308.15 K | 318.15 K | 343.15 K | 363.15 K
m1 = 0.00132 | 0.02129 ± 9e-05 | 0.02471 ± 0.0001 | 0.03642 ± 0.00015 | 0.0439 ± 0.00018 | 0.05331 ± 0.00021 | 0.07921 ± 0.00032 | 0.09755 ± 0.00039
m1 = 0.01048 | 0.1568 ± 0.0006 | 0.1809 ± 0.0007 | 0.2575 ± 0.001 | 0.3146 ± 0.0013 | 0.3758 ± 0.0015 | 0.5522 ± 0.0022 | 0.6987 ± 0.0028
m1 = 0.1319 | 1.589 ± 0.0064 | 1.815 ± 0.0073 | 2.542 ± 0.01 | 3.054 ± 0.012 | 3.59 ± 0.014 | 5.098 ± 0.02 | 6.345 ± 0.025
m1 = 0.3525 | 3.8 ± 0.015 | 4.305 ± 0.017 | 5.942 ± 0.024 | 7.115 ± 0.029 | 8.319 ± 0.033 | 11.6 ± 0.046 | 14.31 ± 0.057

From the NIST ThermoML archive (doi:10.1021/je101012n)
